Experimental data: patent US5192799A, “Coumaran group containing amine compounds and their acid addition salts and quaternary ammonium salts and the use thereof as anti arrhythmic agents and as psychotropic agents” (Mitsui Petrochemical Industries, Ltd., priority 1987, dated 1993)
Like-named read-outs stand apart in the source and are kept apart here.

How the values were obtained:
Purkinje fiber = assay: Effect on APD (APD75, field-stimulated right ventricular free wall); format: cell-based, adult mongrel dog; conditions: for activation at 1 µg/mL / activation at 3 µg/mL / activation at 10 µg/mL: Canis lupus familiaris, purkinje, 20 min, read-out: APD75 % (percent change in APD75)
Procedure: The pharmacological effects of the compounds of this invention represented by general formula (1) were studied. By using the heart of an adult mongrel dog, the activity of the compounds of general formula (1) were tested in vitro and in vivo. The heart of an anaethetized dog was extracted and suspended in a chamber at 37° C. in Tyrode's solution. The drug was added to Tyrode's solution being perfused through the heart specimen, and electrophysiological effects of the drug on cardiac action potential duration (APD) and maximum rate of depolarization were studied. An anaethetized dog was cut open at the chest.
An adult mongrel dog was anaethetized with intravenous administration of pentobarbital, 30 mg/kg. The heart was quickly removed, and the right ventricular free wall was dissected in the Tyrode's solution. The right ventricular free wall was fixed within an incubator at 37° C., and field stimulation at 1 Hz was carried out. Intracellular potentials were measured by piercing glass microelectrodes (10-20 megaohms) into the Purkinje fiber and the wave form of cardiac action potential drawn on an oscilloBraun tube via an amplifier was analyzed by a computer. Value of APD was obtained at 75% of full repolarization (APD75). The drug was added to Tyrode's solution (20 ml) perfused through the specimen. The effect of the drug was expressed by a percent change in APD75 after incubation for 20 minutes with the control value of APD before application of the drug being taken as 100%.

[1] = tested on: right ventricle (effective refractory period); assay: Activity on ERP of the right ventricle; format: in vivo, adult mongrel dog; conditions: Canis lupus familiaris, read-out: ERP % (ERP prolonging activity)
Procedure: The pharmacological effects of the compounds of this invention represented by general formula (1) were studied. By using the heart of an adult mongrel dog, the activity of the compounds of general formula (1) were tested in vitro and in vivo. The heart of an anaethetized dog was extracted and suspended in a chamber at 37° C. in Tyrode's solution. The drug was added to Tyrode's solution being perfused through the heart specimen, and electrophysiological effects of the drug on cardiac action potential duration (APD) and maximum rate of depolarization were studied. An anaethetized dog was cut open at the chest. […] In an anaethetized and open-chested adult mongrel dug, a silver-silver chloride electrode was sutured to the right ventricle, and ventricular pacing was performed at a stimulation interval of 400 msec for a duration time of 4 msec, twice diastolic threshold. Then, a small amount of alcohol was injected through the sinus artery to extinguish the pacemaker activity, and under ventricular pacing, ERP was measured. Ten stimulations were taken as one train, and the interval between trains when the response to the first stimulation disappeared was defined as ERP. […] ERP before drug administration (intravenously or intraduodenally) was taken as 100%, and ERP prolonging activity of the drugs was expressed by %.

in vivo = conditions: mouse, in vivo, 24 hours after administration, male ddY mice
Procedure: By using male ddY-strain 5-week old mice (3 to 4 per group), the compounds of general formula (1) were each administered orally or intraperitoneally as a solution in saline or as a suspension in methyl cellulose, and 24 hours after the administration, the toxicity of the compounds was evaluated.

[2] = dose 1 μg/ml, 20 minutes incubation, 37° C., 1 Hz, control before drug = 100%
[3] = dose 3 μg/ml, 20 minutes incubation, 37° C., 1 Hz, control before drug = 100%
[4] = dose 10 μg/ml, 20 minutes incubation, 37° C., 1 Hz, control before drug = 100%
[5] = iv, 0.1 mg/kg i.v., ERP before drug = 100%
[6] = iv, 0.3 mg/kg i.v., ERP before drug = 100%
[7] = iv, 1 mg/kg i.v., ERP before drug = 100%
[8] = iv, 3 mg/kg i.v., ERP before drug = 100%

| Compound | activation at 1 µg/mL (Purkinje fiber; [2]) [%] | activation at 3 µg/mL (Purkinje fiber; [3]) [%] | activation at 10 µg/mL (Purkinje fiber; [4]) [%] | change in vivo at 0.1 mg/kg [1, 5] [%] | change in vivo at 0.3 mg/kg [1, 6] [%] | change in vivo at 1 mg/kg [1, 7] [%] | LD50 at 24 h (in vivo; po, LD50 p.o., p.o.) [mg/kg] | also measured |
| --- | --- | --- | --- | --- | --- | --- | --- | --- |
| CC(C)N(CCCOc1ccc2c(c1)OCC2=O)C(C)C [Compound 116] | 14 | 38 | 44 | 3 | 7 | 9 | > 300 | change in vivo at 3 mg/kg [1, 8]: 9% |
| CCCCN(CCCOc1ccc2c(c1)OCC2=O)CC(C)C [Compound 128] | 9 | 18 | – | – | – | – | > 300 | – |
| CC(C)CN(CCCOc1ccc2c(c1)OCC2=O)CC(C)C [Compound 132] | 7 | 18 | 21 | 2.4 ± 2.4 | 2.4 ± 2.4 | 4.8 ± 4.8 | > 300 | change in vivo at 3 mg/kg [1, 8]: 4.8 ± 4.8% |
| C=CCN(CCCOc1ccc2c(c1)OCC2=O)C1CCCCC1 [Compound 160] | 0 | 7 | 11 | – | – | – | > 300 | – |
| CCN(CCCOc1ccc2c(c1)OCC2=O)CC1CCCO1 (stereo not shown) [Compound 184] | – | 16 | 31 | 4.3 ± 2.2 | 6.3 ± 3.4 | 6.3 ± 3.4 | ~300 | – |
| CCN(CCCCCCO)CCCOc1ccc2c(c1)OCC2=O [Compound 188] | 17 | 19 | 19 | – | – | – | > 300 | – |
| CCCCCCCN(CC)CCOc1ccc2c(c1)OCC2=O [Compound 196] | 7 | 10 | 11 | 5 | 5 | 18 | ~300 | – |
| CCCCCN(CC)CCCCOc1ccc2c(c1)OCC2=O [Compound 208] | 0 | 5 | 9 | – | – | – | ~300 | – |
| CCCCCCCN(CC)CCCCOc1ccc2c(c1)OCC2=O [Compound 212] | 4 | 8 | – | 7.1 ± 3.4 | 7.1 ± 3.4 | 13.8 ± 3.6 | 300 to 600 | change in vivo at 3 mg/kg [1, 8]: 13.8 ± 3.6% |
| CCCCCCCN(CC)CC(O)COc1ccc2c(c1)OCC2=O.Cc1ccc(S(=O)(=O)O)cc1 (stereo not shown) [Compound 216, 6-[3-(N-ethyl-N-heptylamino)-2-hydroxypropyloxy]coumaran-3-one p-toluenesu lfonate] | – | – | – | – | – | – | 300 to 600 | activation at 1 µg/mL (Purkinje fiber): 13%; activation at 3 µg/mL (Purkinje fiber): 17%; change in vivo at 0.1 mg/kg ([1]; iv): 8%; change in vivo at 0.3 mg/kg ([1]; iv): 8%; change in vivo at 1 mg/kg ([1]; iv): 8%; change in vivo at 3 mg/kg ([1]; iv): 8% |
| CCCCCCCN(CC)CCCOc1ccc2c(c1OC)OCC2=O [Compound 244] | 6 | 9 | 11 | 0 | 9 | 9 | ~300 | change in vivo at 3 mg/kg [1, 8]: 17% |
| CCCCCCC[N+](CC)(CC)CCCOc1ccc2c(c1)OCC2=O.[Br-] [Compound 286, (3-oxo-6-coumaranoxypropyl)diethylheptyl ammonium bromide] | 17 | 29 | – | 5.7 ± 0.3 | 15.7 ± 5.5 | 15.7 ± 5.5 | 300 to 1000 | change in vivo at 3 mg/kg [1, 8]: 17.7 ± 7.3%; change in vivo at 0.1 mg/kg ([1]; 0.1 mg/kg i.d., ERP before drug = 100%): 0%; change in vivo at 0.3 mg/kg ([1]; 0.3 mg/kg i.d., ERP before drug = 100%): 0%; change in vivo at 1 mg/kg ([1]; 1 mg/kg i.d., ERP before drug = 100%): 10%; change in vivo at 3 mg/kg ([1]; 3 mg/kg i.d., ERP before drug = 100%): 19%; LD50 at 24 h (in vivo; ip, LD50 i.p., i.p.): 100 to 500 mg/kg |
| CCCCCCC[N+](CC)(CC)CCCOc1ccc2c(c1)OCC2O (stereo not shown) [Compound 470] | 13 | 16 | 20 | 0 | 0 | 2 | > 300 | change in vivo at 3 mg/kg [1, 8]: 8% |
| CCCCCCC[N+](CC)(CC)CCCOc1cccc2ccc(=O)oc12 [Compound 632] | – | 44 | 18 | – | – | – | > 300 | – |
| O=C1COc2cc(OCCCN3CCCCC3)ccc21 [Compound 1110] | – | – | – | – | – | – | > 300 | APD75 % (percent change in APD75) (Purkinje fiber; [3]): 10%; APD75 % (percent change in APD75) (Purkinje fiber; [4]): 20% |
| O=C1COc2cc(OCCCN3CCCC4CCCCC43)ccc21 (stereo not shown) [Compound 1158] | – | 10 | 13 | – | – | – | > 300 | – |
| CC[N+]1(CCCOc2ccc3c(c2)OCC3=O)CC(C)OC(C)C1 (stereo not shown) [Compound 1171] | 0 | 10 | – | – | – | – | > 300 | – |
| CC1CCN(CCCOc2ccc3c(c2)OCC3=O)CC(C)C1 (stereo not shown) [Compound 1194] | 16 | 19 | – | – | – | – | > 300 | – |
| CC(=O)NC1CCN(CCCOc2ccc3c(c2)OCC3=O)CC1 [Compound 1302] | – | 5 | 13 | – | – | – | > 300 | – |
| O=C1CCc2cc(OCCC[N+]34CN5CN(CN(C5)C3)C4)ccc21 [Compound 1400] | – | – | – | – | – | – | > 300 | – |
| O=C1COc2cc(OCCC[n+]3ccc(-c4ccccc4)cc3)ccc21 [Compound 1404] | – | – | – | – | – | – | > 300 | – |
